Data as given in paper PMC9780857 (International Journal of Molecular Sciences, 2022).
pIC50: −log10 of the molar value. Values after ≈ are worked out from the molar mass of the structure shown. Values joined by “and” are separate entries in the source; they are usually repeats but may differ in a detail not shown here. Identical values can stand only once. “Also recorded” adds a separate entry of the source. Like-named read-outs stand apart in the source and are kept apart here.

Experiments:
[1] = tested on: MATEs; set-up: method as in ref 33 (Wittwer et al.); settings: ref 33 (Wittwer et al.); read-out: IC50, MATEs-mediated ASP+ uptake; cited from earlier work
[2] = molecular target: T1, hOCT2 (Homo sapiens, UniProt O15244); test: Inhibition of hOCT2-mediated 14C-metformin uptake in transfected HEK293 cells; assay type: cell-based; set-up: expressed in transfected cells; host or cells: HEK293 (stably transfected)
T1 sequence (O15244 1-555): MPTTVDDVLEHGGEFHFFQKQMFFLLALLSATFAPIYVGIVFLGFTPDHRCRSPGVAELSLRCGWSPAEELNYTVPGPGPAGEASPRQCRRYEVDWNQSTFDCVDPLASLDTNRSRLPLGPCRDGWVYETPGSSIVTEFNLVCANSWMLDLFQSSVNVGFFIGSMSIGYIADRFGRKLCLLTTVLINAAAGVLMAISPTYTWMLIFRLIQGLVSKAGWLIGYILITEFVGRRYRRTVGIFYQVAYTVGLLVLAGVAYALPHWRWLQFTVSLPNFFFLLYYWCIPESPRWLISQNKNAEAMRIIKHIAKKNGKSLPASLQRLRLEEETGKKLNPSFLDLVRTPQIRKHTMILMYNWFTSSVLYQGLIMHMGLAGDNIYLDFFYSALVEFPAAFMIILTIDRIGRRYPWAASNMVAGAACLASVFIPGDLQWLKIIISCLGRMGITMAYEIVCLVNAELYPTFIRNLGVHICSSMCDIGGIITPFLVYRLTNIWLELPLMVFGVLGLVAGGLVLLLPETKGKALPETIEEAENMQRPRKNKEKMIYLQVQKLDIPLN
Method: (§1) The uptake assays were performed as previously described in 24-well plates. […] After incubation, the uptake was stopped by aspirating the reaction mixture and washing the cells three times with 0.4 mL ice-cold PBS buffer. Cells were then solubilized with 0.6 mL of 1 N NaOH, overnight. The whole content of each well (0.6 mL) was transferred to a scintillation vial (Perkin Elmer). The radio-labelled amount was determined by liquid scintillation counting.
(§2) All inhibition experiments were conducted on at least two separate days in triplicate.
(§3) For screening experiments, cis-inhibition was carried out in duplicate by measuring the uptake of the labeled probe substrate in the absence and presence of 10 µM or 100 µM of the respective pesticide or drug. […] Inhibitory effects in percent were calculated from net-uptake. […]

[3] = molecular target: T2, mOct2 (Mus musculus, UniProt O70577); test: Inhibition of mOct2-mediated 14C-metformin uptake in transfected HEK293 cells; assay type: cell-based; set-up: expressed in transfected cells; host or cells: HEK293 (stably transfected)
T2 sequence (O70577 1-553): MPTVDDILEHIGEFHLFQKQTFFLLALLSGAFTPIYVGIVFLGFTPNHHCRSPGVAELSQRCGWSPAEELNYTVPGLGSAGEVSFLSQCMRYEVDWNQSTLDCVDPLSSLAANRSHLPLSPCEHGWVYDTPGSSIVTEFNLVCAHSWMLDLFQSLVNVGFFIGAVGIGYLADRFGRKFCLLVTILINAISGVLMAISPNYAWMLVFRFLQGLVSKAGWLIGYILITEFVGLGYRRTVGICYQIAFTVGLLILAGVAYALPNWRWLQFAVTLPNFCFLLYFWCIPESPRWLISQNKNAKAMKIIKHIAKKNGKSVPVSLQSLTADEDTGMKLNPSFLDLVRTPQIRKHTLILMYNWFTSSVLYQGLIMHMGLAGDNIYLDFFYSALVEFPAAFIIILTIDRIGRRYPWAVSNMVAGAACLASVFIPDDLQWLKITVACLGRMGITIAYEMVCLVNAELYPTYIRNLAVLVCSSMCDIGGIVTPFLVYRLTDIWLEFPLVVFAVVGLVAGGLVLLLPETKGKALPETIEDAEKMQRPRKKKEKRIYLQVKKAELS
Method: as §1, §2, §3

[4] = molecular target: T1, hOCT2; set-up: expressed in transfected cells; host or cells: HEK293 (stably transfected); settings: read-out: Km, concentration dependent uptake by human OCT2; cited from earlier work
[5] = molecular target: T1, hOCT2; set-up: method as in PMID 9260930; settings: OCT2-overexpressing oocytes (procainamid); read-out: IC50, hOCT2-mediated TEA uptake; cited from earlier work
[6] = molecular target: T1, hOCT2; test: Inhibition of hOCT2-mediated 3H-MPP uptake in transfected HEK293 cells; assay type: cell-based; set-up: expressed in transfected cells; host or cells: HEK293 (stably transfected)
Method: (§4) With cDNA of hOCT2 (GeneBank: accession number: NM_003058.3) or mOct2 (NM_013667.2), stably overexpressing HEK293 cells were used for the experiments and empty vector-transfected HEK cells were used as control-HEK cells.
(§5) The uptake assays were performed as previously described in 24-well plates. Therefore, culture medium was aspirated, and each well was rinsed three times with 0.5 mL incubation buffer (HBSS supplemented with 20 mM HEPES, pH 7.4) and then incubated in 200 µL dosing solution containing ^3H-MPP or ^14C-metformin and the test compound. After incubation, the uptake was stopped by aspirating the reaction mixture and washing the cells three times with 0.4 mL ice-cold PBS buffer. Cells were then solubilized with 0.6 mL of 1 N NaOH, overnight. The whole content of each well (0.6 mL) was transferred to a scintillation vial (Perkin Elmer). The radio-labelled amount was determined by liquid scintillation counting.
(§6) […]. All inhibition experiments were conducted on at least two separate days in triplicate.
(§7) The Km and Vmax values were obtained using SigmaPlot version 13 by fitting the Michaelis–Menten equation V = Vmax*[S]/(Km + [S]), where V refers to the rate of substrate transport, Vmax refers to the maximum rate of substrate transport, [S] refers to the concentration of substrate, and Km is defined as the concentration of substrate at the half-maximal transport rate.

[7] = molecular target: T2, mOct2; test: Inhibition of mOct2-mediated 3H-MPP uptake in transfected HEK293 cells; assay type: cell-based; set-up: expressed in transfected cells; host or cells: HEK293 (stably transfected)
Method: as §4, §5, §6, §7

[8] = molecular target: T1, hOCT2; set-up: expressed in transfected cells; host or cells: HEK293 (stably transfected); settings: read-out: IC50, MPP uptake in hOCT2-HEK293 cells; HEK293; ref 28 (Hayer-Zillgen et al. 2002); cited from earlier work
[9] = Highest soluble concentration in assay buffer (determined visually); assay type: physicochemical; settings: assay buffer (HBSS/HEPES), aqueous buffer, HBSS/HEPES pH 7.4
[10] = molecular target: T1, hOCT2; set-up: expressed in transfected cells; host or cells: HEK293 (stably transfected); method as in ref 39 (Vermeer et al.); settings: ref 39 (Vermeer et al.); cited from earlier work
[11] = HEK293, 10 µM test compound; 1 µM [14C]metformin, 2 min, HEK293; negative = stimulation; read-out: Inhibitory Effects (%) hOCT2 10 µM Mean
[12] = HEK293, 100 µM test compound; 1 µM [14C]metformin, 2 min, HEK293; negative = stimulation; read-out: Inhibitory Effects (%) hOCT2 100 µM Mean
[13] = HEK293; read-out: Inhibitory Effects (%) mOct2 10 µM Mean
[14] = HEK293; read-out: Inhibitory Effects (%) mOct2 100 µM Mean
[15] = 10 µM test compound; 1 µM [14C]metformin, 2 min, HEK293; negative = stimulation
[16] = 100 µM test compound; 1 µM [14C]metformin, 2 min, HEK293; negative = stimulation
[17] = up to 100 µM (highest soluble concentration)

Compound: CC(C)c1nc(CN(C)C(=O)N[C@H](C(=O)N[C@@H](Cc2ccccc2)C[C@H](O)[C@H](Cc2ccccc2)NC(=O)OCc2cncs2)C(C)C)cs1 [Ritonavir]
- pIC50 [1]: 5.36
- inhibition at 10 µM [2, 11]: -10%
- inhibition at 100 µM [2, 12]: -38%
- inhibition at 10 µM [3, 13]: 1%
- inhibition at 100 µM [3, 14]: -8%

Compound: C[n+]1ccc(-c2cc[n+](C)cc2)cc1 [Paraquat]
- inhibition at 10 µM ([2]; HEK293, read-out: Inhibitory Effects (%) hOCT2 10 µM Mean): -15%
- inhibition at 100 µM ([2]; HEK293, read-out: Inhibitory Effects (%) hOCT2 100 µM Mean): -52%
- inhibition at 10 µM ([3]; HEK293, read-out: Inhibitory Effects (%) mOct2 10 µM Mean): -9%
- inhibition at 100 µM ([3]; HEK293, read-out: Inhibitory Effects (%) mOct2 100 µM Mean): -48%
- Km [4]: 114 µM

Compound: CCN1/C(=C/c2ccc3ccccc3[n+]2CC)C=Cc2ccccc21.[I-] [Decynium22]
- pIC50 [5]: 7.00
- Fold higher inhibitory potential on metformin uptake compared to MPP uptake, hOCT2 [2]: 7.2 fold
- Inhibitory Effects (%) hOCT2 10 µM Mean [2, 15]: 67%
- Inhibitory Effects (%) hOCT2 100 µM Mean [2, 16]: 96%
- pIC50 ([2]; read-out: IC50, hOCT2-mediated metformin uptake; control inhibitor; 350 µM metformin; 0.1-100 µM inhibitor): 5.66
- Fold higher inhibitory potential on metformin uptake compared to MPP uptake, mOct2 [3]: 2.7 fold
- Inhibitory Effects (%) mOct2 10 µM Mean [3, 15]: 72%
- Inhibitory Effects (%) mOct2 100 µM Mean [3, 16]: 97%
- pIC50 ([3]; read-out: IC50, mOct2-mediated metformin uptake; control inhibitor; 350 µM metformin; 0.1-100 µM inhibitor): 5.59
- Fold higher IC50 for hOCT2 than for mOct2 ([6]; MPP as substrate): 2 fold and 2.3 fold
- pIC50 ([6]; read-out: IC50, hOCT2-mediated MPP uptake, control inhibitor, MPP at its Km, 0.1-100 µM inhibitor): 4.80
- pIC50 ([7]; read-out: IC50, mOct2-mediated MPP uptake, control inhibitor, MPP at its Km, 0.1-100 µM inhibitor): 5.16
- pIC50 [8]: 5.89

Compound: COc1cc2c(cc1OC)CN(CCc1ccc(NC(=O)c3cccc4c(=O)c5cccc(OC)c5[nH]c34)cc1)CC2 [Elacridar]
- solubility [9]: 100 µM (≈ 56.4 µg/mL)
- pIC50 [2]: 4.70
- inhibition at 10 µM ([2]; HEK293; read-out: Inhibitory Effects (%) hOCT2 10 µM Mean): 25%
- inhibition at 100 µM ([2]; HEK293; read-out: Inhibitory Effects (%) hOCT2 100 µM Mean): 65%
- pIC50 [3]: 5.72
- inhibition at 10 µM [3, 13]: 56%
- inhibition at 100 µM [3, 14]: 81%
- Fold higher inhibitory potency to mouse than to human OCT2 (IC50 ratio) ([3]; metformin as substrate): 10 fold
- IC50, hOCT2-mediated MPP uptake ([6]; 2 nM [3H]MPP): no IC50 value could be determined; also recorded: calculation of an IC50 value was not possible
- Maximum inhibition of hOCT2-mediated MPP uptake [6, 17]: ≤ 60%
- IC50, mOct2-mediated MPP uptake ([7]; 2 nM [3H]MPP): no IC50 value could be determined; also recorded: calculation of an IC50 value was not possible
- Maximum inhibition of mOct2-mediated MPP uptake [7, 17]: ≤ 60%

Compound: CC(=O)N1CCN(c2ccc(OCC3COC(Cn4ccnc4)(c4ccc(Cl)cc4Cl)O3)cc2)CC1 (stereo not shown) [Ketoconazole]
- inhibition at 10 µM [2, 11]: 31%
- inhibition at 100 µM [2, 12]: 87%
- inhibition at 10 µM [3, 13]: 49%
- inhibition at 100 µM [3, 14]: 87%
- pIC50 [10]: 6.05
